Active and inactive are the calls of the source. The rule behind the calls is not given here.

Test [1] relates to MC-38. Nature of the test: Antitumor activity against mouse MC38 cells xenografted in C57BL/6 mouse assessed as inhibition of tumor growth at 30 mg/kg, po twice daily co-administered with anti-PD1-antibody at 5 mg/kg, ip twice weekly for 2 weeks. The format is functional, organism-based.
Test [2] concerns MC-38. The experiment in a line: Antitumor activity against mouse MC38 cells xenografted in C57BL/6 mouse assessed as increase in animal survival at 30 mg/kg, po twice daily co-administered with anti-PD1-antibody at 5 mg/kg, ip twice weekly for 2 weeks. The format is functional, organism-based.
Test [3] concerns 4T1. The experiment in a line: Antitumor activity against mouse 4T1 cells xenografted in Balb/cj mouse assessed as inhibition of tumor growth at 30 mg/kg, po twice daily for 21 days relative to control. The format is functional. Conditions: 4T1, 504 h, time 21 day, read-out: TGI.
For test [4], the system named is 4T1. The experiment in a line: Antitumor activity against mouse 4T1 cells xenografted in Balb/cj mouse assessed as inhibition of tumor growth at 30 mg/kg, po twice daily for 21 days in presence of 4-1BB monoclonal antibody relative to control. The format is functional. Conditions: 4T1, 504 h, time 21 day, read-out: TGI.
For test [5], the system named is 4T1. The experiment in a line: Antitumor activity against mouse 4T1 cells xenografted in Balb/cj mouse assessed as inhibition of tumor growth at 30 mg/kg, po twice daily for 21 days in presence of OXO40 monoclonal antibody relative to control. The format is functional. Conditions: 4T1, 504 h, time 21 day, read-out: TGI.
For test [6], the system named is CT26. Nature of the test: Antitumor activity against mouse CT26 cells xenografted in Balb/c mouse assessed as time of events at 30 mg/kg, po twice daily for 28 days. Conditions: time 28 day. The format is functional.
Test [7] relates to CT26. The experiment in a line: Antitumor activity against mouse CT26 cells xenografted in Balb/c mouse assessed as tumor growth delay at 30 mg/kg, po twice daily for 28 days. The format is functional. Conditions: time 28 day.
The subject of test [8] is CT26. The experiment in a line: Antitumor activity against mouse CT26 cells xenografted in Balb/c mouse assessed as time of events at 30 mg/kg, po twice daily for 28 days in presence of ant-CTLA4 antibody. Conditions: time 28 day. The format is functional.
For test [9], the system named is CT26. The experiment in a line: Antitumor activity against mouse CT26 cells xenografted in Balb/c mouse assessed as tumor growth delay at 30 mg/kg, po twice daily for 28 days in presence of ant-CTLA4 antibody. The format is functional. Conditions: time 28 day.

As for `CC(C)c1cnc(-c2cc(Cl)ccc2F)cc1Nc1ccncc1C(=O)NC(CO)CO` [PF-06952229], the inhibition entry with MC-38 [1] is “Active”. Also, the outcome in the test with MC-38 [2] was Active. Moreover, the inhibition in vivo at 30 mg/kg in the test on 4T1 [3] was 18%; in the test on 4T1 [4], 41%; in the test with 4T1 [5] it was 29.5%. Moreover, the Time in the test with CT26 [6] was 33.8 days; with CT26 [8], 59 days. The figures for the Activity in the test with CT26 [7] and in the test with CT26 [9] were 18% and 106%, respectively.

(Values after ChEMBL document CHEMBL5143760, “Inhibitors of Transforming Growth Factor Beta Receptor 1 (TGFβr1) May Enhance the Efficacy of Several Monoclonal Antibodies as Cancer Therapy” (2022).)
